Source: BindingDB's records for doi:10.1016/0960-894X(96)00174-6 (n/a, 1996)
pIC50: −log10 of the molar value.

Biological target: T1, 5-hydroxytryptamine receptor 2C (Homo sapiens, UniProt P28335)
T1 sequence (P28335 whole entry): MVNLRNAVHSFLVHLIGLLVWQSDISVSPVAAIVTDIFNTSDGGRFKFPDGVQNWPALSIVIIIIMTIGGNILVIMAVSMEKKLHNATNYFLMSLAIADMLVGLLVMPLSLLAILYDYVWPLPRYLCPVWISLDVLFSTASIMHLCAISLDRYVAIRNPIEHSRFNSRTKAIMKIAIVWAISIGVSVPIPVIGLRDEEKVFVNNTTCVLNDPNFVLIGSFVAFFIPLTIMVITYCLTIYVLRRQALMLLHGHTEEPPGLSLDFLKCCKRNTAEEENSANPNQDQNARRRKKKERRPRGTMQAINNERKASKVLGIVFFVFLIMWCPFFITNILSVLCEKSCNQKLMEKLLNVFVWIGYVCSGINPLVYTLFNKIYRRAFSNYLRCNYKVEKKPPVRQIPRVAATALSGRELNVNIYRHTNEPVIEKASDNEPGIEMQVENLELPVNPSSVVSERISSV
Experiment: ChEBML_3050
Source text: Binding affinity towards 5-hydroxytryptamine 2C receptor by displacement of [3H]N-methyl-mesulergine

Question: With CCCN(CCCCN1C(=O)CC2(CCCC2)CC1=O)CC1COc2cccc(OC)c2C1 (stereo not drawn) as the compound, how does the pIC50 read?
Answer: 5.50

Question: O=C1CC2(CCCC2)CC(=O)N1CCCCNCC1COc2ccccc2C1 (stereo not drawn) was tested. Which pIC50 did it give?
Answer: 5.91

Question: How did the pIC50 turn out when COc1cccc2c1CC(CNCCCCN1C(=O)CC3(CCCC3)CC1=O)CO2 (stereo not drawn) was run?
Answer: 6.77

Question: With CCCN(CCC)CC1(N(CCC)CCC)COc2cccc(OC)c2C1 (stereo not drawn) as the compound, how does the pIC50 read?
Answer: 4.52

Question: How did the pIC50 turn out when CCCN1CCN(Cc2ccccc2)CC12COc1cccc(OC)c1C2 (stereo not drawn) was run?
Answer: 4.41

Question: How did the pIC50 turn out when CCCN1CCN(CCC)C2(COc3cccc(OC)c3C2)C1 (stereo not drawn) was run?
Answer: 3.33

Question: With CCCN1CCN(CCCCN2C(=O)CC3(CCCC3)CC2=O)CC12COc1cccc(OC)c1C2 (stereo not drawn) as the compound, how does the pIC50 read?
Answer: 4.51

Question: With COc1cccc2c1CC1(CCCN1CCCCN1C(=O)CC3(CCCC3)CC1=O)CO2 (racemic) [(+/-) 8-{4-[5-methoxyspiro[3,4-dihydro-2H-chromene-3,2'-(tetrahydro-1'H-pyrrole)]-1-yl]butyl}-8-azaspiro[4.5]decane-7,9-dione] as the compound, how does the pIC50 read?
Answer: 4.98
